Results on 21 compounds are retold here after patent publication US10758534B2 (Vertex Pharmaceuticals Incorporated, priority 2014, dated 2020).

T1 sequence (P13569 with tags, fused parts or gaps DEL508-508): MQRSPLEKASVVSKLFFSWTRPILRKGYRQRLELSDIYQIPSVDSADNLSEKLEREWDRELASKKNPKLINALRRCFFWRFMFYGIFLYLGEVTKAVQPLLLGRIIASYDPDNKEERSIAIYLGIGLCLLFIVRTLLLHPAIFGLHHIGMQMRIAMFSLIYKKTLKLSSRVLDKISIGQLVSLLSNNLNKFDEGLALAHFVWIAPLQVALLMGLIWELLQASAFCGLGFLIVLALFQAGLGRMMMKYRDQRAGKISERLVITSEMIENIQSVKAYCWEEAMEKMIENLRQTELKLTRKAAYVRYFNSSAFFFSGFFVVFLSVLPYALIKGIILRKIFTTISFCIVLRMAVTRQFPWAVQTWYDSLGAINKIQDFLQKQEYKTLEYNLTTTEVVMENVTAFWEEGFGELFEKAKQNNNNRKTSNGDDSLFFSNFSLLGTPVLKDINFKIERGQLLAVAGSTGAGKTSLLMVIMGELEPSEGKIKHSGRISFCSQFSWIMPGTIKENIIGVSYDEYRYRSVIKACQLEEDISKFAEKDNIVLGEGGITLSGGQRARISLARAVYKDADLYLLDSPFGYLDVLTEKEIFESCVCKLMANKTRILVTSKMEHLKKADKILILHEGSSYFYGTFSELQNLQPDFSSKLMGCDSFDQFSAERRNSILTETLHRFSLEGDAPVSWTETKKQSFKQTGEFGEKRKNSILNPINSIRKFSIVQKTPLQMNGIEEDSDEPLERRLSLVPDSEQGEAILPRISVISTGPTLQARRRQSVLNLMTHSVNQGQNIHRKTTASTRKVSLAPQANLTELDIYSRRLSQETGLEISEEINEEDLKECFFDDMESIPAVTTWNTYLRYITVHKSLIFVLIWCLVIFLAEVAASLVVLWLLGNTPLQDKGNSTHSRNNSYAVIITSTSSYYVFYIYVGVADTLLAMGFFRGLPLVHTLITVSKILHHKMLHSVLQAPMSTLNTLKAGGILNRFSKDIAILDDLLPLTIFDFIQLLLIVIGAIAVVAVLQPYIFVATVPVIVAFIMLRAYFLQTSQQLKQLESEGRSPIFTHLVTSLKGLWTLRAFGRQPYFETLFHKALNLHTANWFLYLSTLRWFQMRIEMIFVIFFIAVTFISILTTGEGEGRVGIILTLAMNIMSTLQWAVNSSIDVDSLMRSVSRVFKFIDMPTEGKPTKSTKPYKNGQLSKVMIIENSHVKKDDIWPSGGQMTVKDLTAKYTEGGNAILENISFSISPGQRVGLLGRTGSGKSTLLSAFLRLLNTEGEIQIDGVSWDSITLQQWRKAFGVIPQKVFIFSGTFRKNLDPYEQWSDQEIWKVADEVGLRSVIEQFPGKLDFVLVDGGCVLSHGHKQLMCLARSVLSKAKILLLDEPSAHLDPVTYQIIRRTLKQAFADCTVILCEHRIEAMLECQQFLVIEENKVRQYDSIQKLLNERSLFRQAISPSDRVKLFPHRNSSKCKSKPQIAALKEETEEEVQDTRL

The experiment has as its target T1, F508del (Homo sapiens, UniProt P13569, DEL508-508).
T1 construct: expressed in transfected cells
As to the kind of experiment: Protocol 1: membrane potential optical assay (FLIPR III, voltage sensing dye), identification of potentiator compounds. The format is cell-based. To be noted: Table 3, compounds of Table 1. The gist of the method:
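Read-out: change in voltage-sensing dye fluorescence (FLIPR III) as a measure of F508del conductance. Temperature-corrected (27° C, 24 hrs) NIH 3T3 cells expressing F508del are pretreated with potentiators, dye-loaded, then stimulated with forskolin under a chloride ion gradient using chloride-free gluconate bath.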
For the compound `Cc1ccc(-c2ccc(C(=O)NS(=O)(=O)c3nccnc3N)c(N3CCC(C)CC3)n2)cc1` [Compound 1084, N-(3-aminopyrazin-2-yl)sulfonyl-2-(4-methyl-1-piperidyl)-6-(p-tolyl)pyridine-3-carboxamide], the EC30 entry is “++ (“++” means between 3 uM and 10 uM)”.
In the case of `CC1CN(c2nc(-c3ccc(OC(C)C)nc3)ccc2C(=O)NS(=O)(=O)c2cccc(N)n2)C(C)(C)C1` (stereo not drawn) [Compound 1247, N-[(6-amino-2-pyridyl)sulfonyl]-6-(6-isopropoxy-3-pyridyl)-2-(2,2,4-trimethylpyrrolidin-1-yl)pyridine-3-carboxamide], the EC30 result is on record as “+++ (“+++” means <3 uM)”.
On to `CC(C)Oc1ccc(-c2ccc(C(=O)NS(=O)(=O)c3cccnc3N)c(N3C[C@@H](C)CC3(C)C)n2)cc1` [Compound 1903, N-[(2-amino-3-pyridyl)sulfonyl]-6-(4-isopropoxyphenyl)-2-[(4S)-2,2,4-trimethylpyrrolidin-1-yl]pyridine-3-carboxamide], for which the EC30 entry is “+++ (“+++” means <3 uM)”.
Consider `COc1nc(C)ccc1S(=O)(=O)NC(=O)c1ccc(C(C)(C)C)nc1Oc1c(C)cc(C)cc1C` [Compound 1153, 6-tert-butyl-N-[(2-methoxy-6-methyl-3-pyridyl)sulfonyl]-2-(2,4,6-trimethylphenoxy)pyridine-3-carboxamide], for which the EC30 result is “+++ (“+++” means <3 uM)”.
Consider `CC1CN(c2nc(C(C)(C)C)c(C3=CCN(C(=O)OCc4ccccc4)CC3)cc2C(=O)NS(=O)(=O)c2cccc(N)n2)C(C)(C)C1` (stereo not drawn) [Compound 1404, benzyl 4-[5-[(6-amino-2-pyridyl)sulfonylcarbamoyl]-2-tert-butyl-6-(2,2,4-trimethylpyrrolidin-1-yl)-3-pyridyl]-3,6-dihydro-2H-pyridine-1-carboxylate], for which the EC30 entry is on record as “+++ (“+++” means <3 uM)”.
Consider `CCOc1cc(-c2ccc(C(=O)NS(=O)(=O)c3cccc(N)n3)c(N3C[C@@H](C)CC3(C)C)n2)cc(C(F)(F)F)c1` [Compound 1569, N-[(6-amino-2-pyridyl)sulfonyl]-6-[3-ethoxy-5-(trifluoromethyl)phenyl]-2-[(4S)-2,2,4-trimethylpyrrolidin-1-yl]pyridine-3-carboxamide], for which the EC30 result was “+++ (“+++” means <3 uM)”.
On to `CC(=O)C1CC=C(c2cc(C(=O)NS(=O)(=O)c3cccc(N)n3)c(N3CC(C)CC3(C)C)nc2C(C)(C)C)CC1` (stereo not drawn) [Compound 1461, 5-(4-acetylcyclohexen-1-yl)-N-[(6-amino-2-pyridyl)sulfonyl]-6-tert-butyl-2-(2,2,4-trimethylpyrrolidin-1-yl)pyridine-3-carboxamide], for which the EC30 result is “+++ (“+++” means <3 uM)”.
Take `CC1CN(c2nc(-c3cccc(NC(C)C)n3)ccc2C(=O)NS(=O)(=O)c2cccc(N)n2)C(C)(C)C1` (stereo not drawn) [Compound 951, N-[(6-amino-2-pyridyl)sulfonyl]-6-[6-(isopropylamino)-2-pyridyl]-2-(2,2,4-trimethylpyrrolidin-1-yl)pyridine-3-carboxamide]: the EC30 result is “+++ (“+++” means <3 uM)”.
As to `CC(C)(C)c1ccc(C(=O)NS(=O)(=O)c2ccc(N)cc2)c(C2=CCCCC2)n1` [Compound 880, N-(4-aminophenyl)sulfonyl-6-tert-butyl-2-(cyclohexen-1-yl)pyridine-3-carboxamide], the EC30 entry was “++ (“++” means between 3 uM and 10 uM)”.
On to `CCOc1cc(C)cc(-c2ccc(C(=O)NS(=O)(=O)c3cccnc3N)c(Oc3c(C)cc(C)cc3C)n2)n1` [Compound 1795, N-[(2-amino-3-pyridyl)sulfonyl]-6-(6-ethoxy-4-methyl-2-pyridyl)-2-(2,4,6-trimethylphenoxy)pyridine-3-carboxamide], for which the EC30 result was “+++ (“+++” means <3 uM)”.
For the compound `CC1CN(c2ncc(C3=CC4CCC3C4)cc2C(=O)NS(=O)(=O)c2cccc(N)n2)C(C)(C)C1` (stereo not drawn) [Compound 1888, N-[(6-amino-2-pyridyl)sulfonyl]-5-(3-bicyclo[2.2.1]hept-2-enyl)-2-(2,2,4-trimethylpyrrolidin-1-yl)pyridine-3-carboxamide], the EC30 result is “++ (“++” means between 3 uM and 10 uM)”.
The value for `Cc1cc(C)c(CN2Cc3ccccc3C2(C)C(=O)NS(=O)(=O)c2ccc[nH]c2=O)c(C)c1` (stereo not drawn) [Compound 1237, 1-methyl-N-[(2-oxo-1H-pyridin-3-yl)sulfonyl]-2-[(2,4,6-trimethylphenyl)methyl]isoindoline-1-carboxamide] was “++ (“++” means between 3 uM and 10 uM)”.
As for `CC(C)Oc1ccc(-c2ccc(C(=O)NS(=O)(=O)c3cccc(N)n3)c(N3CCCC3C)n2)cn1` (stereo not drawn) [Compound 1271, N-[(6-amino-2-pyridyl)sulfonyl]-6-(6-isopropoxy-3-pyridyl)-2-(2-methylpyrrolidin-1-yl)pyridine-3-carboxamide], the EC30 entry is “+++ (“+++” means <3 uM)”.
Turning to `CC(C)COc1cnn(-c2ccc(C(=O)NS(=O)(=O)c3ccc[nH]c3=O)c(N3C[C@@H](C)CC3(C)C)n2)c1` [Compound 1760, 6-(4-isobutoxypyrazol-1-yl)-N-[(2-oxo-1H-pyridin-3-yl)sulfonyl]-2-[(4S)-2,2,4-trimethylpyrrolidin-1-yl]pyridine-3-carboxamide], the EC30 result was “++ (“++” means between 3 uM and 10 uM)”.
With `CC(C)COc1cnn(-c2ccc(C(=O)NS(=O)(=O)c3cccnc3N)c(N3C[C@@H](C)CC3(C)C)n2)c1` [Compound 1895, N-[(2-amino-3-pyridyl)sulfonyl]-6-(4-isobutoxypyrazol-1-yl)-2-[(4S)-2,2,4-trimethylpyrrolidin-1-yl]pyridine-3-carboxamide], the EC30 result is reported as “+++ (“+++” means <3 uM)”.
Regarding `Cc1cc(C)c(Oc2nc(-n3cc(C)cn3)ccc2C(=O)NS(=O)(=O)c2cccc(N)n2)c(C)c1` [Compound 1220, N-[(6-amino-2-pyridyl)sulfonyl]-6-(4-methylpyrazol-1-yl)-2-(2,4,6-trimethylphenoxy)pyridine-3-carboxamide], the EC30 result was “+++ (“+++” means <3 uM)”.
The value for `CC(C)COc1cc(F)cc(-c2ccc(C(=O)NS(=O)(=O)c3cccc(N)n3)c(O[C@H]3CCOC3)n2)c1` [Compound 1464] was “+++ (“+++” means <3 uM)”; that for `CC(C)Oc1ccc(-c2ccc(C(=O)NS(=O)(=O)c3cccc(N)n3)c(N3C[C@H](C)CC3(C)C)n2)cn1` [Compound 949, N-[(6-amino-2-pyridyl)sulfonyl]-6-(6-isopropoxy-3-pyridyl)-2-[(4R)-2,2,4-trimethylpyrrolidin-1-yl]pyridine-3-carboxamide] was “+++ (“+++” means <3 uM)”; that for `CC1CN(c2ncccc2C(=O)NS(=O)(=O)c2cccc(OCC3CCNC3)n2)C(C)(C)C1` (stereo not drawn) [Compound 1734, N—[[6-(pyrrolidin-3-ylmethoxy)-2-pyridyl]sulfonyl]-2-(2,2,4-trimethylpyrrolidin-1-yl)pyridine-3-carboxamide] was “+++ (“+++” means <3 uM)”.
As for `COc1c(F)cccc1-c1ccc(C(=O)NS(=O)(=O)c2ccc[nH]c2=O)c(N2C[C@@H](C)CC2(C)C)n1` [Compound 1779, 6-(3-fluoro-2-methoxy-phenyl)-N-[(2-oxo-1H-pyridin-3-yl)sulfonyl]-2-[(4S)-2,2,4-trimethylpyrrolidin-1-yl]pyridine-3-carboxamide], the EC30 result is “+++ (“+++” means <3 uM)”.
Take `COC1CCN(c2nc(C(C)(C)C)ccc2C(=O)NS(=O)(=O)c2ccc(N)cc2)CC1` [Compound 1298, N-(4-aminophenyl)sulfonyl-6-tert-butyl-2-(4-methoxy-1-piperidyl)pyridine-3-carboxamide]: the EC30 result was “++ (“++” means between 3 uM and 10 uM)”.
